The text below walks through data of article PMC6331910, “The Curcumin Analogue 1,5-Bis(2-hydroxyphenyl)-1,4-pentadiene-3-one Induces Apoptosis and Downregulates E6 and E7 Oncogene Expression in HPV16 and HPV18-Infected Cervical Cancer Cells” (Molecules, 2015).

Read-outs that look alike come from different tables or passages of the source.

Series [1] deals with CaSki. Kind of series: MTT cell viability (dose-dependent cytotoxicity) assay, 72 h. It counts as cell-based, human. To be noted: for Selective Index CaSki: EC50 (MRC9)/EC50 (CaSki) × 100; for EC50: read-out: EC50 (Mean ± S.E.M.) CaSki. How it is done: (§1) Control-treated wells contained cells incubated in media with equal volumes of DMSO (0.2%). […] The media was aspirated and cells were incubated in 100 µL complete medium with 0.5 mg/mL MTT solution for 4 h in the dark to allow metabolism of MTT by cellular mitochondrial dehydrogenases. The excess MTT was aspirated and the formazan crystals formed were dissolved by the addition of 100 µL of DMSO. The absorbance of dark blue formazan was read at 570/650 nm wavelengths using a microplate reader (Bio-Rad Benchmark Plus Microplate Spectrophotometer, Hercules, CA, USA). Triplicate absorbance values were averaged and the effect of the compounds on growth inhibition was assessed as percentage cell viability as follows: […] The results were analysed using GraphPad Prism version 6.00 for Windows (GraphPad Software, La Jolla, CA, USA). […] Overall EC50 was determined by taking the average EC50 from three independent experiments.

Series [2] relates to HeLa. The description is as above. To be noted: for Selective Index HeLa: EC50 (MRC9)/EC50 (HeLa) × 100; for EC50: read-out: EC50 (Mean ± S.E.M.) HeLa. It counts as cell-based, human. The method, then:
as §1

Series [3] concerns MRC9. Kind of series: MTT cell viability (cytotoxicity) assay on non-cancerous lung fibroblasts, 72 h. It counts as cell-based. To be noted: Homo sapiens, read-out: EC50 (Mean ± S.E.M.) MRC9. The method, then:
(§2) HeLa, CaSki and MRC9 cells were plated in triplicate wells in 96-well flat-bottomed tissue culture plates (Nunc, Roskilde, Denmark) with 10^5 cells per mL in 100 μL culture media with working concentrations of diarylpentanoid treatment ranging from 1.6 to 100 μM. Control-treated wells contained cells incubated in media with equal volumes of DMSO (0.2%). Cells were treated for 72 h for dose-dependent cytotoxicity assays and at 24, 48 and 72 h for anti-proliferative (time-dependent) assays. In order to assess cell viability and anti-proliferative activity after diarylpentanoid treatment, the colorimetric 3-(4,5-dimethylthiazol-2-yl)-2,5-diphenyltetrazolium bromide (MTT) assay was performed as previously described with modifications. The media was aspirated and cells were incubated in 100 µL complete medium with 0.5 mg/mL MTT solution for 4 h in the dark to allow metabolism of MTT by cellular mitochondrial dehydrogenases. The excess MTT was aspirated and the formazan crystals formed were dissolved by the addition of 100 µL of DMSO. The absorbance of dark blue formazan was read at 570/650 nm wavelengths using a microplate reader (Bio-Rad Benchmark Plus Microplate Spectrophotometer, Hercules, CA, USA). Triplicate absorbance values were averaged and the effect of the compounds on growth inhibition was assessed as percentage cell viability as follows: (1) Percentage cell viability =Absorbance of Test − Absorbance of Blank (media only)/Absorbance of Control − Absorbance of Blank (media only) × 100 where, absorbance = optical density of sample, O.D.; control = untreated sample; test = treated sample.
The results were analysed using GraphPad Prism version 6.00 for Windows (GraphPad Software, La Jolla, CA, USA). Using percentage cell viability Equation (1), log dose–response curves were constructed, from which the half maximal effective concentration, EC50 for each replicate was determined. Overall EC50 was determined by taking the average EC50 from three independent experiments. […] (3) Selectivity Index (SX) =EC50 (MRC9)/EC50 (Cancer cell line) × 100

In series [4] the test system is CaSki. Kind of series: MTT anti-proliferative (time-dependent) assay, 24, 48 and 72 h. It counts as cell-based, human. To be noted: for concentration from which a notable decline in cell viability was caused / effect on cell viability: at 24, 48 and 72 h; for cell viability: 6.3–100 μM. The method, then:
as §2
(§3) An independent set of vehicle-treated (DMSO only) controls were included in the anti-proliferative assays to assess the proliferation of untreated cancer cells over 24, 48 and 72 h. As such, the cell viability at 24 h was used as a baseline to measure proliferation rate at 48 and 72 h. (2) Percentage cell viability = […]/Absorbance of Control (24 h) × Absorbance of Blank (media only) × 100

Series [5] has as its system HeLa. The series is described as above. It counts as cell-based, human. To be noted: for concentration from which a notable decline in cell viability was caused / cell growth: at 24, 48 and 72 h; for reduction of cell viability: 12.5 μM and above. How it is done:
as §2, §3

[6] abbreviates: Homo sapiens, Ca-Ski, MTT, 72 h.
[7] abbreviates: MRC9, MTT, 72 h, non-cancerous lung fibroblasts.

As a reminder, the inhibition is the share of the control response that was lost under treatment. In general, EC50 refers to the concentration that produces a half-maximal response. In general, cell viability refers to the share of living cells, or the viability signal relative to a control. Usually viability stands for a read-out of living cells in per cent, often relative to untreated cells.

`COc1cc(/C=C/C(=O)CC(=O)/C=C/c2ccc(O)c(OC)c2)ccc1O` [Curcumin]: the “Selective Index CaSki” value in series [1] worked out at 168. Moreover, the inhibition at 25 µM in series [1] (Homo sapiens, Ca-Ski, CaSki, 25 μM, 72 h, read-out: growth inhibition) stood at 50%. Besides, the EC50 in series [1] (setting [6]) turned out to be 15.8 ± 3.1 µM; in series [2] (Homo sapiens, HeLa, MTT, 72 h), 26.7 ± 14.3 µM; in series [3] (setting [7]) it was 26.6 ± 3.2 µM. Moreover, the “Selective Index HeLa” value in series [2] came out at 100. The inhibition at 50 µM in series [2] (Homo sapiens, HeLa, beginning at 50 μM, 72 h, read-out: growth inhibition) was around 50%. For the same compound, the “concentration from which a notable decline in cell viability was caused” value (from here on “concentration”) in series [4] was found to be 25 µM; in series [5], 50 µM. Also, in series [4] (from 25 μM onwards), the “effect on cell viability” value is “significant decline in cell viability”. For the same compound, the cell growth entry in series [5] (onwards from 50 μM) was “below 50%”.
Take `O=C(C=Cc1cccc(F)c1)C=Cc1cccc(F)c1` [MS40E, 1,5-bis(3-fluorophenyl)-1,4-pentadiene-3-one]: in series [1], the “Selective Index CaSki” value is recorded as 906. In series [1] (Homo sapiens, Ca-Ski, CaSki, 6.3 μM, 72 h, read-out: growth inhibition), the inhibition at 6.3 µM was 80%. Besides, the inhibition at 100 µM in series [1] (Homo sapiens, Ca-Ski, CaSki, 100 μM, 72 h, read-out: growth inhibition) amounted to 90%. Further, the EC50 in series [1] (setting [6]) came to 3.5 ± 0.4 µM; in series [2] (Homo sapiens, HeLa, MTT, 72 h) it was 15.5 ± 1.9 µM; in series [3] (setting [7]) it was 31.7 ± 3.2 µM. Besides, the “Selective Index HeLa” value in series [2] was determined as 204. Besides, the inhibition at 25 µM in series [2] (Homo sapiens, HeLa, beginning at 25 μM, 72 h, read-out: growth inhibition) was around 75%. Further, the “effect on cell viability” value in series [4] (12.5 μM onwards) was “significant decline in cell viability”. For the same compound, the entries for the “concentration” value in series [4] and in series [5] were 12.5 µM and 25 µM, respectively. Further, in series [5] (onwards from 25 μM), the cell growth entry is listed as “below 50%”.
On to `O=C1C(=Cc2cccc(F)c2)CCCC1=Cc1cccc(F)c1` [MS49, 2,6-bis(3-fluorobenzylidene)cyclohexanone], for which the cell viability result in series [1] (CaSki, 25–100 μM, 72 h) is “around 10%”. Also, the “Selective Index CaSki” value in series [1] amounted to 273. The same compound yielded a viability at 12.5 µM in series [1] (Homo sapiens, Ca-Ski, CaSki, 12.5 μM, 72 h) of 20%. Besides, the EC50 in series [1] (setting [6]) stood at 6 ± 2.9 µM; in series [2] (Homo sapiens, HeLa, MTT, 72 h), 8.3 ± 4.6 µM; in series [3] (setting [7]), 16.4 ± 4.4 µM. Besides, in series [2], the “Selective Index HeLa” value came out at 199. For the same compound, the inhibition at 12.5 µM in series [2] (Homo sapiens, HeLa, beginning at 12.5 μM, 72 h, read-out: growth inhibition) is around 75%. Besides, the “effect on cell viability” value in series [4] (12.5 μM onwards) is “significant decline in cell viability”. The “concentration” value came out at 12.5 µM in series [4] and 25 µM in series [5]. For the same compound, the cell growth entry in series [5] (onwards from 25 μM) was “below 50%”.
For `COc1cc(C=CC(=O)C=Cc2ccc(O)c(OC)c2)ccc1O` [MS13, 1,5-bis(4-hydroxy-3-methoxyphenyl)-1,4-pentadiene-3-one], the “decrease in cell growth” value in series [1] (CaSki, 3.1 μM, 72 h) was found to be 50%. Further, in series [1] (CaSki, 6.3–100 μM, 72 h), the “cell growth after treatment” value is listed as “around 10%”. In series [1], the “Selective Index CaSki” value worked out at 346. Further, the EC50 in series [1] (Homo sapiens, Ca-Ski, 72 h) stood at 2.8 ± 0.4 µM; in series [2] (Homo sapiens, HeLa, 72 h) it was 6.7 ± 2.4 µM; in series [3] (MRC9, 72 h), 9.7 ± 2.4 µM. Besides, the “Selective Index HeLa” value in series [2] was found to be 145. Moreover, the cell viability entry in series [2] (HeLa, beyond 12.5 μM, 72 h) is listed as “less than 10%”; in series [4] (48 h), 21%; in series [4] (72 h), 9%. In addition, the viability at 12.5 µM is around 12% in series [2] (Homo sapiens, HeLa, 12.5 μM, 72 h) and around 50% in series [4] (Homo sapiens, Ca-Ski, 12.5 μM, 24 h, read-out: decline of cell viability). In addition, the entries for the “dosage from which reduction in cell viability was significantly higher at 48 and 72 h than at 24 h” value in series [4] and in series [5] were 6.3 µM and 12.5 µM, respectively. For the same compound, the “reduction of cell viability” value in series [5] (24 h) is listed as 72%; in series [5] (48 h) it was “approximately 91%”; in series [5] (72 h), around 95%.
